Test results: patent US10072011B2, “Substituted bridged urea analogs as sirtuin modulators” (GlaxoSmithKline Intellectual Property (No.2) Limited, priority 2014, dated 2018)

Target: T1, SIRT1 (Homo sapiens, UniProt Q96EB6)
T1 sequence (Q96EB6 1-747): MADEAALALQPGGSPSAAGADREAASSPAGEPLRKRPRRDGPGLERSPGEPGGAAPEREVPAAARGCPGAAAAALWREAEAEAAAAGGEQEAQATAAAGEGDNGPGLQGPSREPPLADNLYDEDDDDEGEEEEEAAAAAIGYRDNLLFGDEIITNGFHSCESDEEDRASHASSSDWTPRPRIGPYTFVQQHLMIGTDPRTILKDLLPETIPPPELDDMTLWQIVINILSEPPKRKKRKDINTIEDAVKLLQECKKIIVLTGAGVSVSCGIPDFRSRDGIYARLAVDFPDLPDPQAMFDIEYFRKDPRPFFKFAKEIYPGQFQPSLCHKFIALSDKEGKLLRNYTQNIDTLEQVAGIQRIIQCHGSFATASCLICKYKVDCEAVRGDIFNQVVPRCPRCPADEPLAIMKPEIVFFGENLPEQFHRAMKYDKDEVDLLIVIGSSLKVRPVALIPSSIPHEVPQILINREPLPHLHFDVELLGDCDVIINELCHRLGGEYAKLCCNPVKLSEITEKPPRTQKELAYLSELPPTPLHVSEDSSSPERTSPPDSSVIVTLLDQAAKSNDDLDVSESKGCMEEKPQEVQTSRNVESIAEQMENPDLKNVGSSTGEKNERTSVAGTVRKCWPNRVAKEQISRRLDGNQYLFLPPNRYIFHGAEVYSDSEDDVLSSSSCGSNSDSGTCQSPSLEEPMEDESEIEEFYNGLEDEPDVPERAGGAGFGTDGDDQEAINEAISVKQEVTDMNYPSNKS
Experiment: Trp mass spectrometry assay of SIRT1 activation (Ac-R-H-K-K(Ac)-W-NH2 peptide)
Format: biochemical
Details: Trp peptide 0.5 μM, 120 μM βNAD+, 10 nM SIRT1, 25 min at 25° C.; for Emax: 25 min, relative to control (100%), read-out: TRP MAX RESP (percent maximum fold activation)
Outline: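 Mass spectrometry read-out (OAADPR formed, or deacetylated Trp peptide) after a 25 min NAD-dependent deacetylation by E. coli-expressed His-SIRT1, stopped with formic acid.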

In the case of O=C(NCC(F)(F)F)c1nc2c(cc1Cl)N1CC[C@@H](C1)N2C(=O)Nc1ccccn1 [Example 279, (4S)-8-chloro-N5-(pyridin-2-yl)-N7-(2,2,2-trifluoroethyl)-3,4-dihydro-1,4-methanopyrido[2,3-b][1,4]diazepine-5,7(2H)-dicarboxamide], the Emax is reported as > 150% and the “TRP Activity (EC1.5, concentration of test compound that results in 150% activation of SIRT1)” value is reported as “A (EC1.5<1 μM)”.

For C[C@@H](NC(=O)c1ccc2c(n1)N(C(=O)Nc1cncc(OC[C@H](O)CO)n1)[C@H]1CCN2C1)C(F)(F)F [Example 155, (4S)—N5-(6-((R)-2,3-dihydroxypropoxy)pyrazin-2-yl)-N7-((R)-1,1,1-trifluoropropan-2-yl)-3,4-dihydro-1,4-methanopyrido[2,3-b][1,4]diazepine-5,7(2H)-dicarboxamide], the Emax was > 150% and the “TRP Activity (EC1.5, concentration of test compound that results in 150% activation of SIRT1)” value was “A (EC1.5<1 μM)”.

C[C@@H](NC(=O)c1ccc2c(n1)N(C(=O)Nc1cc(-c3ccn(C)n3)ccn1)[C@H]1CCN2C1)C(F)(F)F [Example 85, (4S)—N5-(4-(1-methyl-1H-pyrazol-3-yl)pyridin-2-yl)-N7-((R)-1,1,1-trifluoropropan-2-yl)-3,4-dihydro-1,4-methanopyrido[2,3-b][1,4]diazepine-5,7(2H)-dicarboxamide] was tested, and the Emax was > 150% and the “TRP Activity (EC1.5, concentration of test compound that results in 150% activation of SIRT1)” value was “A (EC1.5<1 μM)”.

With O=C(NCC(F)(F)CO)c1ccc2c(n1)N(C(=O)Nc1ccccn1)[C@H]1CCN2C1 [Example 117, (4S)—N7-(2,2-difluoro-3-hydroxypropyl)-N5-(pyridin-2-yl)-3,4-dihydro-1,4-methanopyrido[2,3-b][1,4]diazepine-5,7(2H)-dicarboxamide] the Emax was > 150% and the “TRP Activity (EC1.5, concentration of test compound that results in 150% activation of SIRT1)” value was “A (EC1.5<1 μM)”.

With CCC(NC(=O)c1ccc2c(n1)N(C(=O)Nc1ccccn1)[C@H]1CCN2C1)C(F)(F)F (stereo in doubt) [Example 61, (4S)—N5-(pyridin-2-yl)-N7-((S)-1,1,1-trifluorobutan-2-yl)-3,4-dihydro-1,4-methanopyrido[2,3-b][1,4]diazepine-5,7(2H)-dicarboxamide] the Emax was > 150% and the “TRP Activity (EC1.5, concentration of test compound that results in 150% activation of SIRT1)” value was “A (EC1.5<1 μM)”.

O=C(O)c1ccnc(NC(=O)N2c3nc(C(=O)NCC(F)(F)F)ccc3N3CC[C@H]2C3)c1 [Example 267, 2-((4S)-7-((2,2,2-trifluoroethyl)carbamoyl)-2,3,4,5-tetrahydro-1,4-methanopyrido[2,3-b][1,4]diazepine-5-carboxamido)isonicotinic acid] was tested, and the Emax was > 150% and the “TRP Activity (EC1.5, concentration of test compound that results in 150% activation of SIRT1)” value was “B (EC1.5 1-25 μM)”.

For O=C(NCCO)c1ccc2c(n1)N(C(=O)Nc1ccccn1)[C@H]1CCN2C1 [Example 13, (4S)—N-7-(2-hydroxyethyl)-N-5-(pyridin-2-yl)-3,4-dihydro-1,4-methanopyrido [2,3-b] [1, 4] diazepine-5, 7(2H)-dicarboxamide], the Emax was > 150%.

With C[C@@H](NC(=O)c1ccc2c(n1)N(C(=O)Nc1cc(NCCO)ccn1)[C@H]1CCN2C1)C(F)(F)F [Example 309, (4S)—N5-(4-((2-hydroxyethyl)amino)pyridin-2-yl)-N7-((R)-1,1,1-trifluoropropan-2-yl)-3,4-dihydro-1,4-methanopyrido[2,3-b][1,4]diazepine-5,7(2H)-dicarboxamide] the Emax was < 150% and the “TRP Activity (EC1.5, concentration of test compound that results in 150% activation of SIRT1)” value was “A (EC1.5<1 μM)”.

In the case of C[C@@H](NC(=O)c1ccc2c(n1)N(C(=O)Nc1cc(-c3cncn3C)ccn1)[C@H]1CCN2C1)C(F)(F)F [Example 86, (4S)—N5-(4-(1-methyl-1H-imidazol-5-yl)pyridin-2-yl)-N7-((R)-1,1,1-trifluoropropan-2-yl)-3,4-dihydro-1,4-methanopyrido[2,3-b][1,4]diazepine-5,7(2H)-dicarboxamide], the Emax is reported as > 150% and the “TRP Activity (EC1.5, concentration of test compound that results in 150% activation of SIRT1)” value is reported as “A (EC1.5<1 μM)”.

For C[C@@H](NC(=O)c1ccc2c(n1)N(C(=O)Nc1cc(C(=O)NCCO)ccn1)[C@H]1CCN2C1)C(F)(F)F [Example 131, (4S)—N5-(4-((2-hydroxyethyl)carbamoyl)pyridin-2-yl)-N7-((R)-1,1,1-trifluoropropan-2-yl)-3,4-dihydro-1,4-methanopyrido[2,3-b][1,4]diazepine-5,7(2H)-dicarboxamide], the Emax was > 150% and the “TRP Activity (EC1.5, concentration of test compound that results in 150% activation of SIRT1)” value was “A (EC1.5<1 μM)”.

For O=C(NCCF)c1ccc2c(n1)N(C(=O)Nc1ccccn1)[C@H]1CCN2C1 [Example 39, (4S)—N7-(2-fluoroethyl)-N5-(pyridin-2-yl)-3,4-dihydro-1,4-methanopyrido[2,3-b][1,4]diazepine-5,7(2H)-dicarboxamide], the Emax was > 150% and the “TRP Activity (EC1.5, concentration of test compound that results in 150% activation of SIRT1)” value was “A (EC1.5<1 μM)”.

For Cn1cccc(NC(=O)N2c3nc(C(=O)NC4CC4)ccc3N3CC[C@H]2C3)c1=O [Example 216, (4S)—N7-cyclopropyl-N5-(1-methyl-2-oxo-1,2-dihydropyridin-3-yl)-3,4-dihydro-1,4-methanopyrido[2,3-b][1,4]diazepine-5,7(2H)-dicarboxamide], the Emax was > 150% and the “TRP Activity (EC1.5, concentration of test compound that results in 150% activation of SIRT1)” value was “B (EC1.5 1-25 μM)”.

CC(C#N)NC(=O)c1ccc2c(n1)N(C(=O)Nc1ccccn1)[C@H]1CCN2C1 (single isomer, unassigned) [Example 102] was tested, and the Emax was > 150% and the “TRP Activity (EC1.5, concentration of test compound that results in 150% activation of SIRT1)” value was “A (EC1.5<1 μM)”.

For CC(C)(C)CNC(=O)c1ccc2c(n1)N(C(=O)Nc1ccccn1)[C@H]1CCN2C1 [Example 15, (4S)—N-7-neopentyl-N-5-(pyridin-2-yl)-3,4-dihydro-1,4-methanopyrido[2,3-b][1,4]diazepine-5,7(2H)-dicarboxamide], the Emax was > 150% and the “TRP Activity (EC1.5, concentration of test compound that results in 150% activation of SIRT1)” value was “A (EC1.5<1 μM)”.

In the case of O=C(NC1CC1)c1ccc2c(n1)N(C(=O)Nc1cccnn1)[C@H]1CCN2C1 [Example 229, (4S)—N7-cyclopropyl-N5-(pyridazin-3-yl)-3,4-dihydro-1,4-methanopyrido[2,3-b][1,4]diazepine-5,7(2H)-dicarboxamide], the Emax is reported as > 150% and the “TRP Activity (EC1.5, concentration of test compound that results in 150% activation of SIRT1)” value is reported as “B (EC1.5 1-25 μM)”.

For C[C@@H](NC(=O)c1ccc2c(n1)N(C(=O)Nc1cc(OC[C@H](O)CO)ncn1)[C@H]1CCN2C1)C(F)(F)F [Example 189, (4S)—N5-(6-((R)-2,3-dihydroxypropoxy)pyrimidin-4-yl)-N7-((R)-1,1,1-trifluoropropan-2-yl)-3,4-dihydro-1,4-methanopyrido[2,3-b][1,4]diazepine-5,7(2H)-dicarboxamide], the Emax was > 150% and the “TRP Activity (EC1.5, concentration of test compound that results in 150% activation of SIRT1)” value was “A (EC1.5<1 μM)”.

C[C@@H](NC(=O)c1ccc2c(n1)N(C(=O)Nc1cc(CCC(O)CO)ccn1)[C@H]1CCN2C1)C(F)(F)F (single isomer, unassigned) [Example 302] was tested, and the Emax was < 150% and the “TRP Activity (EC1.5, concentration of test compound that results in 150% activation of SIRT1)” value was “A (EC1.5<1 μM)”.

With Cc1ccnc(NC(=O)N2c3nc(C(=O)NC4CC4)ccc3N3CC[C@H]2C3)c1 [Example 22, (4S)—N7-cyclopropyl-N5-(4-methylpyridin-2-yl)-3,4-dihydro-1,4-methanopyrido[2,3-b][1,4]diazepine-5,7(2H)-dicarboxamide] the Emax was > 150% and the “TRP Activity (EC1.5, concentration of test compound that results in 150% activation of SIRT1)” value was “B (EC1.5 1-25 μM)”.

O=C(NCCO)c1ccnc(NC(=O)N2c3nc(C(=O)NCC(F)(F)F)ccc3N3CC[C@H]2C3)c1 [Example 180, (4S)—N5-(4-((2-hydroxyethyl)carbamoyl)pyridin-2-yl)-N7-(2,2,2-trifluoroethyl)-3,4-dihydro-1,4-methanopyrido[2,3-b][1,4]diazepine-5,7(2H)-dicarboxamide] was tested, and the Emax was > 150% and the “TRP Activity (EC1.5, concentration of test compound that results in 150% activation of SIRT1)” value was “A (EC1.5<1 μM)”.

In the case of Cc1ncc(-c2ccnc(NC(=O)N3c4nc(C(=O)NCC(F)(F)F)ccc4N4CC[C@H]3C4)n2)o1 [Example 157, (4S)—N5-(4-(2-methyloxazol-5-yl)pyrimidin-2-yl)-N7-(2,2,2-trifluoroethyl)-3,4-dihydro-1,4-methanopyrido[2,3-b][1,4]diazepine-5,7(2H)-dicarboxamide], the Emax is reported as > 150% and the “TRP Activity (EC1.5, concentration of test compound that results in 150% activation of SIRT1)” value is reported as “A (EC1.5<1 μM)”.

With O=C(NCC1CC1)c1ccc2c(n1)N(C(=O)Nc1ccncn1)[C@H]1CCN2C1 [Example 219, (4S)—N7-(cyclopropylmethyl)-N5-(pyrimidin-4-yl)-3,4-dihydro-1,4-methanopyrido[2,3-b][1,4]diazepine-5,7(2H)-dicarboxamide] the Emax was > 150% and the “TRP Activity (EC1.5, concentration of test compound that results in 150% activation of SIRT1)” value was “B (EC1.5 1-25 μM)”.
